Data from PubChem BioAssay AID330 (DTP/NCI, 2004).
Values joined by “and” are separate entries in the source; they are usually repeats but may differ in a detail not shown here. Equal entries are not always repeated. Toxic doses and inconclusive results are not listed. Rule for the calls: active = survival T/C of 150% or more; inactive = T/C below 125% in these data.

System: P388 leukemia ip, CD2F1 mice, survival T/C
Experiment: NCI In Vivo Anticancer Drug Screen. Data for tumor model P388 Leukemia (intraperitoneal) in CD2F1 (CDF1) mice
Conditions: endpoint: median survival time, higher = longer survival
In short: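 Mice carrying the transplanted tumor received test compound or vehicle. Survival was recorded in each group, and the value is the treated-group measurement divided by that of the vehicle-treated control group.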

[1] = dose: 60.0 mg/kg/injection, schedule: Q01DX005 (ip), vehicle: saline
[2] = dose: 120.0 mg/kg/injection, schedule: Q01DX005 (ip), vehicle: saline
[3] = dose: 240.0 mg/kg/injection, schedule: Q01DX005 (ip), vehicle: saline
[4] = dose: 50.0 mg/kg/injection, schedule: Q01DX005 (ip), vehicle: Klucel (hydroxypropylcellulose) (HPC)
[5] = dose: 100.0 mg/kg/injection, schedule: Q01DX005 (ip), vehicle: Klucel (hydroxypropylcellulose) (HPC)
[6] = dose: 200.0 mg/kg/injection, schedule: Q01DX005 (ip), vehicle: Klucel (hydroxypropylcellulose) (HPC)
[7] = dose: 60.0 mg/kg/injection, schedule: Q01DX005 (ip), vehicle: saline with Tween-80
[8] = dose: 120.0 mg/kg/injection, schedule: Q01DX005 (ip), vehicle: saline with Tween-80
[9] = dose: 240.0 mg/kg/injection, schedule: Q01DX005 (ip), vehicle: saline with Tween-80
[10] = dose: 100.0 mg/kg/injection, schedule: Q04DX002 (ip), vehicle: saline with Tween-80
[11] = dose: 200.0 mg/kg/injection, schedule: Q04DX002 (ip), vehicle: saline with Tween-80
[12] = dose: 400.0 mg/kg/injection, schedule: Q04DX002 (ip), vehicle: saline with Tween-80
[13] = dose: 50.0 mg/kg/injection, schedule: Q01DX009 (ip), vehicle: saline with Tween-80
[14] = dose: 100.0 mg/kg/injection, schedule: Q01DX009 (ip), vehicle: saline with Tween-80
[15] = dose: 200.0 mg/kg/injection, schedule: Q01DX009 (ip), vehicle: saline with Tween-80
[16] = dose: 25.0 mg/kg/injection, schedule: Q01DX005 (ip), vehicle: Klucel (hydroxypropylcellulose) (HPC)

Measured: T/C

CC1(C)C2CC[C@@]1(CS(=O)(=O)N(CCCl)CCCl)C(=O)C2
inactive: dose: 30.0 mg/kg/injection, schedule: Q01DX005 (ip), vehicle: saline 99 % of control | [1] 98 % of control | [2] 96 % of control | [3] 96 % of control

CC(=O)NCC1CC2(Cl)C(Cl)=C(Cl)C1(Cl)C2(Cl)Cl (centres undefined)
inactive: [4] 101 % of control | [5] 106 % of control | [6] 106 % of control

CN(C)CC(CN(C)C)C(O)c1ccccc1 (centres undefined)
inactive: [1] 109 % of control | [2] 100 % of control | [3] 109 % of control

C=CCCCN1C(=O)CCCC1=O
inactive: [7] 100 % of control | [8] 101 % of control | [9] 101 % of control

Cc1ccc2sc(-c3ccccc3)c(CCl)c(=O)c2c1
inactive: [10] 102 % of control | [11] 108 % of control | [12] 108 % of control

c1ccc2c(c1)NCCOCCNc1ccccc1OCCNCCO2
inactive: dose: 25.0 mg/kg/injection, schedule: Q01DX001 (ip), vehicle: saline with Tween-80 100 % of control | dose: 50.0 mg/kg/injection, schedule: Q01DX001 (ip), vehicle: saline with Tween-80 96 % of control | dose: 100.0 mg/kg/injection, schedule: Q01DX001 (ip), vehicle: saline with Tween-80 89 % of control and 92 % of control

CC(C)CCC1(CCBr)C(=O)NC(=Nc2ccccc2)NC1=O (centres undefined)
inactive: dose: 25.0 mg/kg/injection, schedule: Q01DX009 (ip), vehicle: saline with Tween-80 96 % of control | [13] 98 % of control | [14] 100 % of control | [15] 100 % of control

COc1cc(O)c(C(c2ccccc2)c2c(O)c(C)c(O)c3c2OC(c2ccccc2)CC3=O)c(O)c1C (centres undefined)
inactive: dose: 5.0 mg/kg/injection, schedule: Q01DX009 (ip), vehicle: Klucel (hydroxypropylcellulose) (HPC) 99 % of control | dose: 10.0 mg/kg/injection, schedule: Q01DX009 (ip), vehicle: Klucel (hydroxypropylcellulose) (HPC) 99 % of control | dose: 20.0 mg/kg/injection, schedule: Q01DX009 (ip), vehicle: Klucel (hydroxypropylcellulose) (HPC) 103 % of control | dose: 40.0 mg/kg/injection, schedule: Q01DX009 (ip), vehicle: Klucel (hydroxypropylcellulose) (HPC) 99 % of control

CC[CH2][Sn]([Br])([Br])[CH2]CC
inactive: dose: 3.12 mg/kg/injection, schedule: Q04DX003 (ip), vehicle: saline 114 % of control | dose: 6.25 mg/kg/injection, schedule: Q04DX003 (ip), vehicle: saline 109 % of control

CN1CCc2c(n(C)c3ccccc23)C1=O
inactive: dose: 25.0 mg/kg/injection, schedule: Q04DX002 (ip), vehicle: saline with Tween-80 102 % of control | dose: 50.0 mg/kg/injection, schedule: Q04DX002 (ip), vehicle: saline with Tween-80 98 % of control | [10] 106 % of control | [11] 101 % of control | [12] 99 % of control

COc1ccc(C2(O)CC3CCC(C2)N3C)cc1 (centres undefined)
inactive: dose: 50.0 mg/kg/injection, schedule: Q01DX005 (ip), vehicle: saline with Tween-80 93 % of control | dose: 100.0 mg/kg/injection, schedule: Q01DX005 (ip), vehicle: saline with Tween-80 100 % of control | dose: 200.0 mg/kg/injection, schedule: Q01DX005 (ip), vehicle: saline with Tween-80 97 % of control

COc1cc2c(cc1OC)C(CC1CCN(C)CC1)NCC2 (centres undefined)
inactive: dose: 50.0 mg/kg/injection, schedule: Q01DX005 (ip), vehicle: saline 106 % of control | dose: 100.0 mg/kg/injection, schedule: Q01DX005 (ip), vehicle: saline 103 % of control | dose: 200.0 mg/kg/injection, schedule: Q01DX005 (ip), vehicle: saline 103 % of control

Cc1c2cc[n+](Cc3ccc(I)cc3)cc2c(C)c2c1[nH]c1ccccc12
inactive: dose: 11.75 mg/kg/injection, schedule: Q04DX002 (ip), vehicle: saline with Tween-80 112 % of control | dose: 23.5 mg/kg/injection, schedule: Q04DX002 (ip), vehicle: saline with Tween-80 116 % of control | dose: 47.0 mg/kg/injection, schedule: Q04DX002 (ip), vehicle: saline with Tween-80 124 % of control

FC(F)(F)C1(C(F)(F)F)OI(Cl)c2ccccc21
inactive: dose: 12.5 mg/kg/injection, schedule: Q04DX002 (ip), vehicle: Klucel (hydroxypropylcellulose) (HPC) 99 % of control | dose: 25.0 mg/kg/injection, schedule: Q04DX002 (ip), vehicle: Klucel (hydroxypropylcellulose) (HPC) 99 % of control | dose: 50.0 mg/kg/injection, schedule: Q04DX002 (ip), vehicle: Klucel (hydroxypropylcellulose) (HPC) 98 % of control

Cc1ccc(C(=O)CC2(O)C(=O)Nc3c(Cl)cc(Cl)cc32)cc1 (centres undefined)
inactive: [7] 103 % of control | [8] 108 % of control | [9] 100 % of control

O.O.[Cu+2].[Cu+2].[NH-]CCC(=O)[N-]C(Cc1cnc[nH]1)C(=O)O.[NH-]CCC(=O)[N-]C(Cc1cnc[nH]1)C(=O)O (centres undefined)
inactive: dose: 6.25 mg/kg/injection, schedule: Q01DX005 (ip), vehicle: Klucel (hydroxypropylcellulose) (HPC) 98 % of control | dose: 12.5 mg/kg/injection, schedule: Q01DX005 (ip), vehicle: Klucel (hydroxypropylcellulose) (HPC) 97 % of control | [16] 106 % of control

Cn1c[n+](C)nn1
inactive: dose: 12.5 mg/kg/injection, schedule: Q01DX009 (ip), vehicle: saline 91 % of control | dose: 25.0 mg/kg/injection, schedule: Q01DX009 (ip), vehicle: saline 97 % of control | dose: 50.0 mg/kg/injection, schedule: Q01DX009 (ip), vehicle: saline 97 % of control

Cc1ncn2c(C)nnc2c1C
inactive: [13] 102 % of control | [14] 100 % of control | [15] 102 % of control

C=C1CCN(c2ccc([N+](=O)[O-])cc2)C1=O
inactive: dose: 4.0 mg/kg/injection, schedule: Q01DX009 (ip), vehicle: saline + alcohol 94 % of control | dose: 8.0 mg/kg/injection, schedule: Q01DX009 (ip), vehicle: saline + alcohol 101 % of control | dose: 16.0 mg/kg/injection, schedule: Q01DX009 (ip), vehicle: saline + alcohol 102 % of control | dose: 32.0 mg/kg/injection, schedule: Q01DX009 (ip), vehicle: saline + alcohol 96 % of control | dose: 64.0 mg/kg/injection, schedule: Q01DX009 (ip), vehicle: saline + alcohol 88 % of control

CC/C(=N/N(C)C)C(=O)OC(C)(C)C
inactive: [1] 95 % of control | [2] 93 % of control | [3] 90 % of control

CN(C(=O)C(=S)c1ccccc1)c1ccccc1
inactive: dose: 100.0 mg/kg/injection, schedule: Q04DX002 (ip), vehicle: saline 104 % of control | dose: 200.0 mg/kg/injection, schedule: Q04DX002 (ip), vehicle: saline 119 % of control | dose: 400.0 mg/kg/injection, schedule: Q04DX002 (ip), vehicle: saline 117 % of control

CC(O)C1OC(O)C2OC(C)(C)OC12 (centres undefined)
inactive: [1] 98 % of control | [2] 95 % of control | [3] 98 % of control

NCCSc1nc(-c2ccccc2)c(-c2ccccc2)o1
inactive: dose: 50.0 mg/kg/injection, schedule: Q01DX009 (ip), vehicle: Klucel (hydroxypropylcellulose) (HPC) 100 % of control | dose: 100.0 mg/kg/injection, schedule: Q01DX009 (ip), vehicle: Klucel (hydroxypropylcellulose) (HPC) 100 % of control | dose: 200.0 mg/kg/injection, schedule: Q01DX009 (ip), vehicle: Klucel (hydroxypropylcellulose) (HPC) 101 % of control

COc1ccc(C2c3cc4c(cc3OC(N3CCCC3)C2C)OCO4)c(OC)c1 (centres undefined)
inactive: [7] 99 % of control | [8] 99 % of control | [9] 97 % of control

CC(C)[C@](O)(C(=O)OC1CCN2CCC(CO)C12)[C@H](C)O (some centres undefined)
inactive: dose: 11.5 mg/kg/injection, schedule: Q01DX009 (ip), vehicle: saline 111 % of control | dose: 23.0 mg/kg/injection, schedule: Q01DX009 (ip), vehicle: saline 107 % of control | dose: 46.0 mg/kg/injection, schedule: Q01DX009 (ip), vehicle: saline 105 % of control | dose: 92.0 mg/kg/injection, schedule: Q01DX009 (ip), vehicle: saline 98 % of control

CC1CN(CC#CCN2C(=O)CCC2=O)CC(C)O1 (centres undefined)
inactive: [16] 103 % of control | [4] 107 % of control | [5] 103 % of control | [6] 107 % of control

COc1cc([C@H]2c3c(cc(OC)c(OC)c3OC)CC3COC(=O)[C@@H]32)cc(Br)c1O (some centres undefined)
inactive: [7] 101 % of control | [8] 95 % of control | [9] 98 % of control
